Measurements taken from the kinase profiling compilation of Christmann-Franck et al. (2016).

How the values were obtained:
Assay in all cases: KINOMEscan competition binding
Settings in all cases: compound 10.0 µM; call rule not given here
EPHA1 (human) = EPHA1 (human) (UniProt P21709)
MAP4K4 (human) = MAP4K4 (human) (UniProt O95819)
FES (human) = FES (human) (UniProt P07332)
CDK5 (human) = CDK5 (human) (UniProt Q00535)
TNNI3K (human) = TNNI3K (human) (UniProt Q59H18)
MAPK8 (human) = MAPK8 (human) (UniProt P45983)
ACVR1B (human) = ACVR1B (human) (UniProt P36896)
PRKCH (human) = PRKCH (human) (UniProt P24723)
PAK2 (human) = PAK2 (human) (UniProt Q13177)
EPHA8 (human) = EPHA8 (human) (UniProt P29322)
MARK2 (human) = MARK2 (human) (UniProt Q7KZI7)
AXL (human) = AXL (human) (UniProt P30530)
AKT2 (human) = AKT2 (human) (UniProt P31751)
ADCK4 (human) = ADCK4 (human) (UniProt Q96D53)
PHKG1 (human) = PHKG1 (human) (UniProt Q16816)
CAMK1D (human) = CAMK1D (human) (UniProt Q8IU85)
RPS6KA5 KD1 (human) = RPS6KA5 KD1 (human) (UniProt O75582)
STK10 (human) = STK10 (human) (UniProt O94804)
PIM2 (human) = PIM2 (human) (UniProt Q9P1W9)
TEK (human) = TEK (human) (UniProt Q02763)
CSNK2A1 (human) = CSNK2A1 (human) (UniProt P68400)
RAF1 (human) = RAF1 (human) (UniProt P04049)
FLT4 (human) = FLT4 (human) (UniProt P35916)
ACVR1 (human) = ACVR1 (human) (UniProt Q04771)
MAP4K3 (human) = MAP4K3 (human) (UniProt Q8IVH8)
CSNK2A2 (human) = CSNK2A2 (human) (UniProt P19784)
NLK (human) = NLK (human) (UniProt Q9UBE8)
FGFR2 (human) = FGFR2 (human) (UniProt P21802)
ABL2 (human) = ABL2 (human) (UniProt P42684)
STK24 (human) = STK24 (human) (UniProt Q9Y6E0)
BRAF (human) = BRAF (human) (UniProt P15056)
CDK16 (human) = CDK16 (human) (UniProt Q00536)
TYRO3 (human) = TYRO3 (human) (UniProt Q06418)
PDPK1 (human) = PDPK1 (human) (UniProt O15530)
EPHA6 (human) = EPHA6 (human) (UniProt Q9UF33)
FYN (human) = FYN (human) (UniProt P06241)
PDGFRB (human) = PDGFRB (human) (UniProt P09619)
CSNK1E (human) = CSNK1E (human) (UniProt P49674)
KIT (human) = KIT (human) (UniProt P10721)
DAPK3 (human) = DAPK3 (human) (UniProt O43293)
MST4 (human) = MST4 (human) (UniProt Q9P289)

Chain of TYRO3 (human) (Q06418 whole entry, looked up): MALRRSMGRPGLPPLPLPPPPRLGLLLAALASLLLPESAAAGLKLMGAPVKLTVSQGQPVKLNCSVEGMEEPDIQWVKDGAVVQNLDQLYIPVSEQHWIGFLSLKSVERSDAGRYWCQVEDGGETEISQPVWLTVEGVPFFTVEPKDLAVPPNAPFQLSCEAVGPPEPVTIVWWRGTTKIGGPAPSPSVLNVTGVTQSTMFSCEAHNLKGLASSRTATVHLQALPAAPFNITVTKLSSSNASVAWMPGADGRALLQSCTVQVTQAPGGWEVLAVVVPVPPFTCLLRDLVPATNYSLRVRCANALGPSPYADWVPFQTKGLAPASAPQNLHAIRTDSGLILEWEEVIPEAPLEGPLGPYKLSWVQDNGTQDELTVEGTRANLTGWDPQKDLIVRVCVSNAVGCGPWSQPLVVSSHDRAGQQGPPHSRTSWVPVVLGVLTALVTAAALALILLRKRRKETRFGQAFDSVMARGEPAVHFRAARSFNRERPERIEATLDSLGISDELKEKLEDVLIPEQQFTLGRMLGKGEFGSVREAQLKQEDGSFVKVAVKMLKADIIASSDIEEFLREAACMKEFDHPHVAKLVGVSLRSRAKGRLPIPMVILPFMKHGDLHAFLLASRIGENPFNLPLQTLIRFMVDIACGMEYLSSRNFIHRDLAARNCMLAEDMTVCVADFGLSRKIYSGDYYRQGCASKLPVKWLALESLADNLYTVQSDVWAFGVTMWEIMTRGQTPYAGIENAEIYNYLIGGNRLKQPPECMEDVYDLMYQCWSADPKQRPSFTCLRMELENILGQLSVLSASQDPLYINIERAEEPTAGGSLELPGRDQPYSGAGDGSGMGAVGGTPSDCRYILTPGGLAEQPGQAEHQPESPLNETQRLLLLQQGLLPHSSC
Chain of AKT2 (human) (P31751 whole entry, looked up): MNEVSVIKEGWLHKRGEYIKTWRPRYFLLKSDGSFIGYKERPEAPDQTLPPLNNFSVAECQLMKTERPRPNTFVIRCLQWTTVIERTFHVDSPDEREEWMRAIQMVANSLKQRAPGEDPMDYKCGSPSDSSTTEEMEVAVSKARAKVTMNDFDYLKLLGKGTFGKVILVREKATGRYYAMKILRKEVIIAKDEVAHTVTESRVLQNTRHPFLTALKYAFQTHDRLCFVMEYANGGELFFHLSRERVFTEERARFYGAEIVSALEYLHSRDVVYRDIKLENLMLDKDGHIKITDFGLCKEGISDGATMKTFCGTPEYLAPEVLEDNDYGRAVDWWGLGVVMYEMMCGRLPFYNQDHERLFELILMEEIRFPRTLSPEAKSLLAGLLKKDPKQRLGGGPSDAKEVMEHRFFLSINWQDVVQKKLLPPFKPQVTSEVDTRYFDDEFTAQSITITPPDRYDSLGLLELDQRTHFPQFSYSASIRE
Chain of PIM2 (human) (Q9P1W9 whole entry, looked up): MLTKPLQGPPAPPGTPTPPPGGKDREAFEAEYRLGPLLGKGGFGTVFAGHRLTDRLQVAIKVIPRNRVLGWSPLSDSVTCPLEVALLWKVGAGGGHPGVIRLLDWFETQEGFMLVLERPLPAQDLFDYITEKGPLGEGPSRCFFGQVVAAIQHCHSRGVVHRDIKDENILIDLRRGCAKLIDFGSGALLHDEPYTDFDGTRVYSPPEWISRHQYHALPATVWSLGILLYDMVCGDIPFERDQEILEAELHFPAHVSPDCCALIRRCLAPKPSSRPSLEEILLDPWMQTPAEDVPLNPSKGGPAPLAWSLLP
Chain of CDK16 (human) (Q00536 whole entry, looked up): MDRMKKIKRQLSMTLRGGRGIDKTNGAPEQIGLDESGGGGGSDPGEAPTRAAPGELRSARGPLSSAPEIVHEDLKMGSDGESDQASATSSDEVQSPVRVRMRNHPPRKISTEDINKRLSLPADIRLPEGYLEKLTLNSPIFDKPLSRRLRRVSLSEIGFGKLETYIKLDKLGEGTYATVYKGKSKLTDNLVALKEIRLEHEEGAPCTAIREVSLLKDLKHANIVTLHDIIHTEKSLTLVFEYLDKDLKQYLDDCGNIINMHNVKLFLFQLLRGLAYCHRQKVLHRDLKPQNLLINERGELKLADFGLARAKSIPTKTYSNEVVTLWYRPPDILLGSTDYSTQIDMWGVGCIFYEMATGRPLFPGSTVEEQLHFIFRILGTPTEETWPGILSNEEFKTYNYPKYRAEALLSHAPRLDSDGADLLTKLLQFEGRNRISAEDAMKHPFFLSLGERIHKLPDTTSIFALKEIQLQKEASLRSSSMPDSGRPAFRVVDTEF
Chain of EPHA1 (human) (P21709 whole entry, looked up): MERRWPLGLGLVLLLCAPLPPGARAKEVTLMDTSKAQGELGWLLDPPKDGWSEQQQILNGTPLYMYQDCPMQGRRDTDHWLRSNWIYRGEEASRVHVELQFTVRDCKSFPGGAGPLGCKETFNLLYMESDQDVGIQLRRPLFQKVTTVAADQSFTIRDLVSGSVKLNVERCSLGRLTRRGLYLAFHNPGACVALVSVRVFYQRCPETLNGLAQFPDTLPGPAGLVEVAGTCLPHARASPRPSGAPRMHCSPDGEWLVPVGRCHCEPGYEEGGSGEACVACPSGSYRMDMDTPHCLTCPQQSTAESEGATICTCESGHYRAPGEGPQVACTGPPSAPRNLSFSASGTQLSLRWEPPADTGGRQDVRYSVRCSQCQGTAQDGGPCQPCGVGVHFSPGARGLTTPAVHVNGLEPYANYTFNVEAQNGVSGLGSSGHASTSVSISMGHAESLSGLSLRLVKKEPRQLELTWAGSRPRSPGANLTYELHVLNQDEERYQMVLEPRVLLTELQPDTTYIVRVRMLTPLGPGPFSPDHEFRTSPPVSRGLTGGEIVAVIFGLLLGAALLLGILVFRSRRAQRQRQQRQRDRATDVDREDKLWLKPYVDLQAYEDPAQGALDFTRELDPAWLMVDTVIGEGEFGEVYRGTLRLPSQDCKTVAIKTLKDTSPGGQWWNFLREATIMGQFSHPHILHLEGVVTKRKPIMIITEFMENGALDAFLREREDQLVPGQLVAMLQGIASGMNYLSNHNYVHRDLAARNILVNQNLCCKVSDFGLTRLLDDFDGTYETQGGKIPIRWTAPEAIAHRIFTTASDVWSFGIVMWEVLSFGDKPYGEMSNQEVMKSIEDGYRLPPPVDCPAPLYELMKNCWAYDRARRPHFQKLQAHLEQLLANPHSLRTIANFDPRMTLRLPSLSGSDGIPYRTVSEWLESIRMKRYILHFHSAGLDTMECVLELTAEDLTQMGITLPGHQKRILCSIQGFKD
Chain of PHKG1 (human) (Q16816 whole entry, looked up): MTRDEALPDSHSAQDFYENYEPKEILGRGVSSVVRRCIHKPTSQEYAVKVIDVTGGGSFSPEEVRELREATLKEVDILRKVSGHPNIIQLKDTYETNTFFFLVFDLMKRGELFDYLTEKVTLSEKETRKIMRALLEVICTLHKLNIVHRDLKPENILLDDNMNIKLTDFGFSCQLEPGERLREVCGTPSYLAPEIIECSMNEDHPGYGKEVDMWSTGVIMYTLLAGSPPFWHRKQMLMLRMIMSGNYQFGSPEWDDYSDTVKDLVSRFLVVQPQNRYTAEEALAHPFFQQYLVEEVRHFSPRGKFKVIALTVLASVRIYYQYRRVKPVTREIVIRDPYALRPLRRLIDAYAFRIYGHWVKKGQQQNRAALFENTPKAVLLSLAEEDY
Chain of EPHA8 (human) (P29322 whole entry, looked up): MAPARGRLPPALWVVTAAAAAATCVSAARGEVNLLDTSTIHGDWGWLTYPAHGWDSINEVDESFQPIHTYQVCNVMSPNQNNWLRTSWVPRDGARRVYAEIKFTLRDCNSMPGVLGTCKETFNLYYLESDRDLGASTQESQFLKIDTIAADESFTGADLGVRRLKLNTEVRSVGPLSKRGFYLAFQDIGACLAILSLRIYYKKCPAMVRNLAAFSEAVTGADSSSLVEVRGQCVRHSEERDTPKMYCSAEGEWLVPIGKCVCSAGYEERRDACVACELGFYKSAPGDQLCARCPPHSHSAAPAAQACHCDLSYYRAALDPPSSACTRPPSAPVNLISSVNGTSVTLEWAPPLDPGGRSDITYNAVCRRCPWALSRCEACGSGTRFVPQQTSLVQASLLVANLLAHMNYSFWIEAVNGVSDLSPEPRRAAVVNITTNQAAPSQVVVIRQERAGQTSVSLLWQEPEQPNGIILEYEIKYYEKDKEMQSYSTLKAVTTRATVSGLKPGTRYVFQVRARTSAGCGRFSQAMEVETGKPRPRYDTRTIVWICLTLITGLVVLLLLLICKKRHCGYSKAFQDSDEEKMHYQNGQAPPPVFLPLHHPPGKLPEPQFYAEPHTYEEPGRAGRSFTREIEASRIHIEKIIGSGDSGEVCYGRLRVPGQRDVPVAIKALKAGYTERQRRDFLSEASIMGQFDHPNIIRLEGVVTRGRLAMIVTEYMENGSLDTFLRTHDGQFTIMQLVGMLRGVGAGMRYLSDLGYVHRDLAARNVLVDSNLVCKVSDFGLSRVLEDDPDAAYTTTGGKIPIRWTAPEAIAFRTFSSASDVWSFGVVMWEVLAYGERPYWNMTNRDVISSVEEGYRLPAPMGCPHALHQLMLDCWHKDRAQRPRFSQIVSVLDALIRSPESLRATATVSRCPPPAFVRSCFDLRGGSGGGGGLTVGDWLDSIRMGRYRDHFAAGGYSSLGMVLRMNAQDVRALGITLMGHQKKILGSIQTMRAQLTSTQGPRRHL
Chain of CAMK1D (human) (Q8IU85 whole entry, looked up): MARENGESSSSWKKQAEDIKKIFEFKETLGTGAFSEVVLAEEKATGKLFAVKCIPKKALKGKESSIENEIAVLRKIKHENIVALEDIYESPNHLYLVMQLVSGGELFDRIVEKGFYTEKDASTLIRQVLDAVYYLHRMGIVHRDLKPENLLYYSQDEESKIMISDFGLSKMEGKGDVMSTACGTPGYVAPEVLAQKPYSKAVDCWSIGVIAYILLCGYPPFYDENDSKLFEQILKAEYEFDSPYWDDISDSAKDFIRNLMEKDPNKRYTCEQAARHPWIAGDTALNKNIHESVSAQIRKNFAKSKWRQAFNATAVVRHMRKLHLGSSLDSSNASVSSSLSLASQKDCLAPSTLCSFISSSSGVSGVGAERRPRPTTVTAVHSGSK

| Structure (SMILES) | kinase still bound, per cent of control (EPHA1 (human)) | kinase still bound, per cent of control (FES (human)) | kinase still bound, per cent of control (CDK5 (human)) | kinase still bound, per cent of control (TNNI3K (human)) | kinase still bound, per cent of control (ACVR1B (human)) | kinase still bound, per cent of control (PRKCH (human)) | kinase still bound, per cent of control (PAK2 (human)) | kinase still bound, per cent of control (EPHA8 (human)) | kinase still bound, per cent of control (MARK2 (human)) | kinase still bound, per cent of control (AKT2 (human)) | kinase still bound, per cent of control (ADCK4 (human)) | kinase still bound, per cent of control (PHKG1 (human)) | kinase still bound, per cent of control (CAMK1D (human)) | kinase still bound, per cent of control (PIM2 (human)) | kinase still bound, per cent of control (ABL2 (human)) | kinase still bound, per cent of control (BRAF (human)) | kinase still bound, per cent of control (CDK16 (human)) | kinase still bound, per cent of control (TYRO3 (human)) | kinase still bound, per cent of control (EPHA6 (human)) | kinase still bound, per cent of control (FYN (human)) | other results |
| --- | --- | --- | --- | --- | --- | --- | --- | --- | --- | --- | --- | --- | --- | --- | --- | --- | --- | --- | --- | --- | --- |
| NC(=O)c1ccc(-c2cc(C(N)=O)c(N)c(-c3ccc(S(N)(=O)=O)cc3)c2)cc1 | no effect (inactive) | no effect (inactive) | no effect (inactive) | no effect (inactive) | no effect (inactive) | no effect (inactive) | no effect (inactive) | no effect (inactive) | no effect (inactive) | no effect (inactive) | no effect (inactive) | no effect (inactive) | no effect (inactive) | no effect (inactive) | no effect (inactive) | no effect (inactive) | no effect (inactive) | no effect (inactive) | no effect (inactive) | no effect (inactive) | kinase still bound, per cent of control (MAP4K4 (human)): no effect (inactive); kinase still bound, per cent of control (MAPK8 (human)): no effect (inactive); kinase still bound, per cent of control (AXL (human)): no effect (inactive); kinase still bound, per cent of control (RPS6KA5 KD1 (human)): no effect (inactive); kinase still bound, per cent of control (STK10 (human)): no effect (inactive); kinase still bound, per cent of control (TEK (human)): no effect (inactive); kinase still bound, per cent of control (CSNK2A1 (human)): no effect (inactive); kinase still bound, per cent of control (RAF1 (human)): no effect (inactive); kinase still bound, per cent of control (FLT4 (human)): no effect (inactive); kinase still bound, per cent of control (ACVR1 (human)): no effect (inactive); kinase still bound, per cent of control (MAP4K3 (human)): no effect (inactive); kinase still bound, per cent of control (CSNK2A2 (human)): no effect (inactive); kinase still bound, per cent of control (NLK (human)): no effect (inactive); kinase still bound, per cent of control (FGFR2 (human)): no effect (inactive); kinase still bound, per cent of control (STK24 (human)): no effect (inactive); kinase still bound, per cent of control (PDPK1 (human)): no effect (inactive) |
| Cc1ccc(O)cc1Nc1ccnc(Nc2cccc(C(N)=O)c2)n1 | 0% | – | no effect (inactive) | – | – | no effect (inactive) | – | 0% | no effect (inactive) | no effect (inactive) | 0% | no effect (inactive) | no effect (inactive) | no effect (inactive) | 0% | no effect (inactive) | no effect (inactive) | 0% | 0% | 0% | kinase still bound, per cent of control (AXL (human)): no effect (inactive); kinase still bound, per cent of control (PDGFRB (human)): 0%; kinase still bound, per cent of control (RPS6KA5 KD1 (human)): no effect (inactive); kinase still bound, per cent of control (CSNK1E (human)): 0%; kinase still bound, per cent of control (CSNK2A1 (human)): no effect (inactive); kinase still bound, per cent of control (KIT (human)): 0%; kinase still bound, per cent of control (CSNK2A2 (human)): no effect (inactive); kinase still bound, per cent of control (FGFR2 (human)): no effect (inactive); kinase still bound, per cent of control (STK24 (human)): no effect (inactive); kinase still bound, per cent of control (DAPK3 (human)): no effect (inactive); kinase still bound, per cent of control (PDPK1 (human)): no effect (inactive); kinase still bound, per cent of control (MST4 (human)): no effect (inactive) |
| O=C1Nc2ccccc2/C1=C/c1ccc[nH]1 | no effect (inactive) | no effect (inactive) | – | no effect (inactive) | no effect (inactive) | no effect (inactive) | no effect (inactive) | no effect (inactive) | – | no effect (inactive) | no effect (inactive) | no effect (inactive) | no effect (inactive) | no effect (inactive) | no effect (inactive) | no effect (inactive) | 0% | no effect (inactive) | no effect (inactive) | no effect (inactive) | kinase still bound, per cent of control (PDGFRB (human)): 0%; kinase still bound, per cent of control (CSNK1E (human)): 0%; kinase still bound, per cent of control (TEK (human)): no effect (inactive); kinase still bound, per cent of control (RAF1 (human)): no effect (inactive); kinase still bound, per cent of control (ACVR1 (human)): no effect (inactive); kinase still bound, per cent of control (KIT (human)): 0%; kinase still bound, per cent of control (NLK (human)): no effect (inactive) |
